Data published in patent US10123985B2, “Therapeutic strategies for treating mitochondrial disorders” (Whitehead Institute for Biomedical Research, priority 2015, dated 2018).
Entries after “also recorded” stand apart in the source; their conditions may differ.

Tests used:
Type in all cases: cell-based
143B CytB cells [1] = assay: Proliferation assay of respiration-incompetent 143B CytB cybrid cells; conditions: for Proliferation rate of 143B CytB cells: media supplemented with the substance, no pyruvate unless tested, uridine present
Procedure: FL5.12 cells were cultured in the same medium and supplemented with 5 μg/mL recombinant mouse IL-3 (R&D Systems). […] All cells incubated at 37° C. with 5% CO2.
Adherent cell lines growing in log phase were trypsinized, counted, and plated onto 6 well dishes (Corning) in 2 mL complete DMEM and incubated overnight. […] The following day, one plate of cells was counted to determine the initial cell count at the time of treatment. Cells were washed 2 times with 2 mL phosphate buffered saline (PBS) and 4 mL media premixed with the indicated treatments was added. FL5.12 cells, a suspension cell line, were washed 2 times in PBS and added directly to media containing the indicated treatments and 5 μg/mL recombinant mouse IL-3. Proliferation rate assay media was DMEM without pyruvate containing 10% dialyzed FBS, penicillin-streptomycin, and 0.1 mg/mL uridine, unless otherwise noted. […] Cells were counted using Cellometer Auto T4 Plus Cell Counter (Nexcelom Bioscience). Proliferation rate was determined using the following formula: Proliferation Rate (Doublings per day)=(log2(Final cell count (day 5)/Initial cell count (day 1))/4 (days)

143B WT cybrid cells = assay: Proliferation assay of respiration-competent 143B WT cybrid cells; conditions: presence or absence of the substance
Procedure: (§1) 143B, A172, H1299, HeLa, U87 and MEF cells were cultured in Dulbecco's Modified Eagle's Medium (DMEM) (Gibco) supplemented with 10% fetal bovine serum (FBS) and penicillin-streptomycin. FL5.12 cells were cultured in the same medium and supplemented with 5 μg/mL recombinant mouse IL-3 (R&D Systems). 143B cybrid cell lines (WT Cybrid and CytB) were cultured in DMEM with 10% FBS, penicillin-streptomycin, and 0.1 mg/mL uridine. All cells incubated at 37° C. with 5% CO2.
(§2) Adherent cell lines growing in log phase were trypsinized, counted, and plated onto 6 well dishes (Corning) in 2 mL complete DMEM and incubated overnight. Initial seeding density was 2E4 cells per well for 143B, A172, H1299, HeLa, 143B WT Cybrid, and MEFs and 3E4 cells for 143B CytB and U87 cells. The following day, one plate of cells was counted to determine the initial cell count at the time of treatment. Cells were washed 2 times with 2 mL phosphate buffered saline (PBS) and 4 mL media premixed with the indicated treatments was added. FL5.12 cells, a suspension cell line, were washed 2 times in PBS and added directly to media containing the indicated treatments and 5 μg/mL recombinant mouse IL-3. Proliferation rate assay media was DMEM without pyruvate containing 10% dialyzed FBS, penicillin-streptomycin, and 0.1 mg/mL uridine, unless otherwise noted. For these cell lines at these seeding densities it was determined that for 4 days the cells maintained logarithmic proliferation (data not shown), therefore final cell counts were measured 4 days after treatment. Cells were counted using Cellometer Auto T4 Plus Cell Counter (Nexcelom Bioscience). Proliferation rate was determined using the following formula: Proliferation Rate (Doublings per day)=(log2(Final cell count (day 5)/Initial cell count (day 1))/4 (days)

143B cells = assay: Proliferation assay of wild-type 143B cells treated with respiration inhibitors; conditions: for Proliferation of respiration-inhibited 143B cells with supplementation: rotenone, phenformin, antimycin, myxothiazol, azide or oligomycin plus the substance; for Proliferation of rotenone treated 143B cells: wide range of rotenone doses, 1 mM AKB or 20 mM aspartate, 4 days
Procedure: as §1, §2

[2] = system: 143B WT cybrid and 143B CytB cells; assay: Mitochondrial oxygen consumption (Seahorse XF24), cybrid cells; conditions: presence or absence of the substance
Procedure: Oxygen consumption rates were determined on a Seahorse Bioscience Extracellular Flux Analyzer (XF24). Cells were plated in Seahorse Bioscience 24 well plates at 6E4 cells per well in 100 μL complete DMEM, allowed to attach for 1 hour, and 500 μl complete DMEM was added before overnight incubation. The following day cells were washed 2 times in assay media: DMEM without phenol red or pyruvate containing 0.5% dialyzed FBS and 0.1 mg/mL uridine at pH 7.4 and incubated in 500 μL of the same media for the assay. Oxygen consumption measurements were compared either, between basal measurements and following injection of the compound (AKB, rotenone, antimycin), or between wells cultured overnight in their treatment conditions (aspartate, oligomycin, FCCP). The latter conditions were used due to solubility constraints (aspartate) or kinetic constraints of the compound (oligomycin). These measurements were then subtracted from oxygen consumption measurements following addition of high dose rotenone and antimycin treatment (2 μM each) to determine the mitochondria specific oxygen consumption rate. Following measurements, the number of cells in the wells was counted, averaged for each treatment condition, and the mitochondrial oxygen consumption rates were normalized to 1E5 cells.

143B CytB cells [3] = assay: Measurement of NAD+/NADH (NAD/NADH Glo) in 143B CytB cells; conditions: absence or presence of the substance
Procedure: NAD^+/NADH measurements were done using a modified version of manufacturer instructions of NAD/NADH Glo Assay (Promega). Cells were plated and treated as for proliferation assays and cell extracts were taken 6 hours after treatment. For extraction, cells were quickly washed 3 times in ice cold PBS, extracted in 100 μL ice cold lysis buffer (1% Dodecyltrimethylammonium bromide (DTAB) in 0.2 N NaOH diluted 1:1 with PBS), and immediately frozen at −80° C. To measure NADH, 20 μL of sample was moved to PCR tubes and incubated at 75° C. for 30 min, where the basic conditions will selectively degrade NAD^+. To measure NAD^+, 20 μL of the samples was moved to PCR tubes containing 20 μL lysis buffer and 20 μL 0.4 N HCl and incubated at 60° C. for 15 min, where acidic conditions will degrade NADH. Following incubations, samples were allowed to equilibrate to room temperature and then quenched by neutralizing with 20 μL 0.25 M Tris in 0.2 N HCl (NADH) or 20 μL 0.5 M Tris base (NAD^+). Manufacturer instructions were followed thereafter to measure NAD^+/NADH.

Compound | Uridine auxotrophy of 143B CytB cells (143B CytB cells [1]; AKB in the presence or absence of uridine) | Proliferation rate of 143B CytB cells (143B CytB cells [1]) | Proliferation rate of 143B WT cybrid cells (143B WT cybrid cells) | Proliferation of respiration-inhibited 143B cells with supplementation (143B cells) | Proliferation of rotenone treated 143B cells (143B cells) | Mitochondrial oxygen consumption rate [2] | Cellular NAD+/NADH ratio (143B CytB cells [3]) | Cell permeability (143B CytB cells [1]; inferred from supra-physiological doses required to restore growth)
CCC(=O)C(=O)O [AKB, α-ketobutyrate] | does not alleviate uridine auxotrophy of 143B CytB cells | rescued proliferation rate of 143B CytB cells to levels similar to what was observed with pyruvate addition | does not impact proliferation of 143B WT cybrids | rescued proliferation, with proliferation rates comparable to that observed in untreated cells | restore proliferation in 143B cells over a wide range of rotenone doses | does not alter oxygen consumption | sufficient to increase the cellular NAD^+/NADH ratio | –
N[C@@H](CC(=O)O)C(=O)O [aspartate] | – | capable of supporting exponential growth of 143B CytB cells | did not have gross proliferation differences | Proliferation was restored in response to all ETC inhibitors | restore proliferation in 143B cells over a wide range of rotenone doses | neither increased mitochondrial oxygen consumption | nor did it affect the NAD^+/NADH ratio | nearly impermeable to cells
CC(=O)C(=O)O [pyruvate] | – | divide at a similar rate | divide at a similar rate; also recorded: does not impact proliferation of 143B WT cybrids | – | – | – | sufficient to increase the cellular NAD^+/NADH ratio | –
